Source: PubChem BioAssay (NCI)
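Exposure lasted 48 hours, with cells grown in 96-well plates and compounds tested at five concentrations. TGI marks complete inhibition of growth.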

Columns and labels:
Test in all cases: NCI-60 cell line screen, 48 h
BT-549 breast = system: BT-549 breast
EKVX NSCLC = system: EKVX NSCLC
HOP-92 NSCLC = system: HOP-92 NSCLC
HT29 colon = system: HT29 colon
M14 melanoma = system: M14 melanoma
MCF7 breast = system: MCF7 breast
MDA-MB-435 = system: MDA-MB-435
SK-MEL-2 melanoma = system: SK-MEL-2 melanoma
SK-MEL-5 melanoma = system: SK-MEL-5 melanoma
SNB-19 CNS = system: SNB-19 CNS

Row | SMILES | TGI (BT-549 breast) [µM] | TGI (EKVX NSCLC) [µM] | TGI (HOP-92 NSCLC) [µM] | TGI (HT29 colon) [µM] | TGI (M14 melanoma) [µM] | TGI (MCF7 breast) [µM] | TGI (MDA-MB-435) [µM] | TGI (SK-MEL-2 melanoma) [µM] | TGI (SK-MEL-5 melanoma) [µM] | TGI (SNB-19 CNS) [µM]
1 | NCCCN(CCCCN(CCCN)CCCc1ccccc1)CCCc1ccccc1 | 10.1 | 12.6 | 24.1 | 4.32 | 3.57 | 3.56 | 3.27 | 3.25 | 3.36 | 6.62
2 | CSc1c(C(C)=O)c(O)n(-c2ccc(C)cc2)c(=O)c1C#N | > 100 | > 100 | – | > 100 | > 100 | > 100 | > 100 | > 100 | > 100 | > 100
3 | COc1cc2c(oc(=O)c3c4occc4cc(OC)c23)c2cccc(O)c12 | – | > 100 | > 100 | > 100 | > 100 | – | – | – | > 100 | > 100
4 | C[N+]1(C)CCCC(C#N)(c2ccccc2)CC1 (stereo unspecified) | – | > 100 | > 100 | > 100 | > 100 | > 100 | – | – | > 100 | > 100
5 | O=C(NNC(=O)c1ccco1)c1ccco1 | > 100 | > 100 | – | > 100 | > 100 | > 100 | > 100 | > 100 | > 100 | > 100
6 | ClC1=NSSC1(Cl)Cl | > 100 | > 100 | – | > 100 | 40.1 | > 100 | > 100 | > 100 | 28.8 | > 100
7 | C=C1OC2OC(C)C(NC(=O)OCC(Cl)(Cl)Cl)C(OC(C)=O)C2O1 (stereo unspecified) | > 100 | > 100 | > 100 | > 100 | > 100 | > 100 | > 100 | – | > 100 | > 100
8 | OC12CCC3(OC4CCCCO4)c4ccccc4C3C1c1ccccc12 (stereo unspecified) | – | > 100 | – | > 100 | > 100 | – | – | > 100 | > 100 | > 100
9 | CCOC(=O)C1=C(O)CC(=O)N=C1N1CCCC1 | – | > 100 | > 100 | > 100 | > 100 | – | > 100 | > 100 | > 100 | > 100
10 | CN(C(=O)Cc1ccccc1)n1cn[n+](CC(=O)OC(C)(C)C)c1 | > 10 | > 10 | > 10 | > 10 | > 10 | > 10 | > 10 | – | > 10 | > 10
11 | C/C(=C\C(=O)Nc1ccc2n[nH]nc2c1)Nc1ccc2n[nH]nc2c1 | – | > 100 | > 100 | > 100 | > 100 | – | – | – | > 100 | > 100
12 | COc1ccc(OC)c2c(C(C)=O)cccc12 | – | > 100 | – | – | – | > 100 | – | – | > 100 | > 100
13 | Cc1ccc(/C=c2\cc3oc(=O)c4cccc(c4-3)c2=O)cc1 | – | > 100 | > 100 | > 100 | > 100 | > 100 | > 100 | > 100 | – | > 100
14 | CN(C)C(=O)C(F)(F)C(c1ccccc1Br)C1C(=O)N(C)C(=O)N(C)C1=O (stereo unspecified) | > 100 | > 100 | > 100 | – | > 100 | > 100 | > 100 | > 100 | > 100 | > 100
15 | Cc1nn2c(=O)c([N+](=O)[O-])c(/C=C/c3ccc(F)cc3)nc2s1 | 18.8 | 22.5 | 26.3 | 16.5 | 16.4 | 13.3 | 10.5 | 19.3 | 15.8 | 23.2
16 | CCOC(=O)c1ccc(N(CCOS(C)(=O)=O)CCOS(C)(=O)=O)cc1 | > 100 | > 100 | > 100 | > 100 | > 100 | > 100 | > 100 | > 100 | > 100 | > 100
17 | CC1OC(OC2C(O)CC(OC3C(O)CC(OC4CCC5(C)C(CCC6C5CCC5(C)C(C7=CC(=O)OC7)C(O)CC65O)C4)OC3C)OC2C)CC(O)C1O (stereo unspecified) | 0.339 | 0.63 | 1.85 | 0.886 | 1.99 | – | 1.27 | 1.55 | 0.533 | 3.49
18 | CNC(=O)OCc1cnc([N+](=O)[O-])n1C | > 100 | > 100 | > 100 | > 100 | – | > 100 | > 100 | > 100 | > 100 | –
19 | O=C(O)CN1C(=O)c2ccc(NC(=O)C(=O)O)cc2S1(=O)=O | > 100 | > 100 | > 100 | – | > 100 | > 100 | > 100 | > 100 | > 100 | > 100
20 | CCOc1ccc(C2=NN(CC)C(=O)C(C3C(=O)N(c4ccccc4)N=C3C)C2)cc1 (stereo unspecified) | – | > 100 | > 100 | > 100 | > 100 | – | – | > 100 | > 100 | > 100
21 | Nc1nc(Sc2ccc([N+](=O)[O-])c3nonc23)c2[nH]cnc2n1 | 18 | 19 | 10.5 | 20.9 | 8.72 | 12 | 12 | 6.32 | 7.8 | 31.4
22 | C[C@]12CC[C@H]3[C@@H](CC=C4C[C@@H](O)CC[C@@]43C)[C@@H]1C/C(=C\c1cccnc1)[C@@H]2O | 48.9 | 35.8 | 59.6 | > 100 | > 100 | 42.5 | > 100 | > 100 | – | 61.5
23 | O=C(/C=C/c1ccc(OCc2ccccc2)cc1)NCc1ccc(C(=O)NCCc2ccccc2)cc1 | > 100 | > 100 | > 100 | > 100 | > 100 | > 100 | > 100 | > 100 | > 100 | > 100
24 | C=CCOCC1C2CCC3(OCCO3)C21 (stereo unspecified) | > 100 | > 100 | > 100 | > 100 | > 100 | > 100 | > 100 | > 100 | > 100 | > 100
